Legend:
DPPH assay = settings: 30 min; 550 nm
Procedure: A method based on the description of Miser-Salihoglu E. et al. was applied. The examination was performed on a FLUOstar Optima BMG Labtech plate-reader with 96-well microplates. The samples were measured in a DMSO environment with the volume of 150 µL per sample resulting 1 mg/mL concentration. Every well contained 50 µL (100 µM) of this base solution for the absorbance measurement (30 min; 550 nm). […] For data evaluation GraphPad Prism 6.0 software was utilized. The DPPH (2,2′-diphenyl-1-picrylhydrazyl) reagent necessary for the process was supplied by from Sigma-Aldrich Hungary.

ORAC assay = settings: Trolox equivalent
Procedure: A method based on the description of Mielnik et al. was applied. In summary, 20 µL of the samples were used in 0.01 mg/mL concentration with a 96-well black microplate. In each well, 60 µL of AAPH (12 mM final concentration) and 120 µL of fluorescein solution (70 nM final concentration) were added. The fluorescence alteration of each sample was measured for 3 h with 1.5 min cycle intervals by a FLUOstar Optima BMG Labtech plate-reader. Trolox ((±)-6-hydroxy-2,5,7,8-tetramethyl-chromane-2-carboxylic acid) was used as a standard. Both Trolox and AAPH was supplied by Sigma-Aldrich, Hungary, while Fluorescein was provided by Fluka analytical, Japan. For data analysis, the GraphPad Prism 6.0 software was used. The results were expressed as mmol Trolox equivalent per g of dry material (mmloTE/g).

[1] = tested on: S. aureus 27,213 (methicillin and ofloxacin resistant clinical isolate); assay: Minimum inhibitory concentration by microdilution method; format: cell-based; settings: Staphylococcus aureus; broth dilution, 18 h
P-glycoprotein (P-gp) = biological target: T1, P-glycoprotein (P-gp) (Homo sapiens, UniProt P08183); assay: Rhodamine 123 accumulation assay (flow cytometry); format: cell-based; parameters: key to FAR (fluorescence activity ratio): FAR = (Colo320 treated/control)/(Colo205 treated/control); settings: for FSC / SSC: Colo 320
T1 construct: Colo 320/MDR-LRP (ATCC-CCL-220.1) resistant to anticancer agents expressing ABCB1
T1 sequence (P08183 whole entry): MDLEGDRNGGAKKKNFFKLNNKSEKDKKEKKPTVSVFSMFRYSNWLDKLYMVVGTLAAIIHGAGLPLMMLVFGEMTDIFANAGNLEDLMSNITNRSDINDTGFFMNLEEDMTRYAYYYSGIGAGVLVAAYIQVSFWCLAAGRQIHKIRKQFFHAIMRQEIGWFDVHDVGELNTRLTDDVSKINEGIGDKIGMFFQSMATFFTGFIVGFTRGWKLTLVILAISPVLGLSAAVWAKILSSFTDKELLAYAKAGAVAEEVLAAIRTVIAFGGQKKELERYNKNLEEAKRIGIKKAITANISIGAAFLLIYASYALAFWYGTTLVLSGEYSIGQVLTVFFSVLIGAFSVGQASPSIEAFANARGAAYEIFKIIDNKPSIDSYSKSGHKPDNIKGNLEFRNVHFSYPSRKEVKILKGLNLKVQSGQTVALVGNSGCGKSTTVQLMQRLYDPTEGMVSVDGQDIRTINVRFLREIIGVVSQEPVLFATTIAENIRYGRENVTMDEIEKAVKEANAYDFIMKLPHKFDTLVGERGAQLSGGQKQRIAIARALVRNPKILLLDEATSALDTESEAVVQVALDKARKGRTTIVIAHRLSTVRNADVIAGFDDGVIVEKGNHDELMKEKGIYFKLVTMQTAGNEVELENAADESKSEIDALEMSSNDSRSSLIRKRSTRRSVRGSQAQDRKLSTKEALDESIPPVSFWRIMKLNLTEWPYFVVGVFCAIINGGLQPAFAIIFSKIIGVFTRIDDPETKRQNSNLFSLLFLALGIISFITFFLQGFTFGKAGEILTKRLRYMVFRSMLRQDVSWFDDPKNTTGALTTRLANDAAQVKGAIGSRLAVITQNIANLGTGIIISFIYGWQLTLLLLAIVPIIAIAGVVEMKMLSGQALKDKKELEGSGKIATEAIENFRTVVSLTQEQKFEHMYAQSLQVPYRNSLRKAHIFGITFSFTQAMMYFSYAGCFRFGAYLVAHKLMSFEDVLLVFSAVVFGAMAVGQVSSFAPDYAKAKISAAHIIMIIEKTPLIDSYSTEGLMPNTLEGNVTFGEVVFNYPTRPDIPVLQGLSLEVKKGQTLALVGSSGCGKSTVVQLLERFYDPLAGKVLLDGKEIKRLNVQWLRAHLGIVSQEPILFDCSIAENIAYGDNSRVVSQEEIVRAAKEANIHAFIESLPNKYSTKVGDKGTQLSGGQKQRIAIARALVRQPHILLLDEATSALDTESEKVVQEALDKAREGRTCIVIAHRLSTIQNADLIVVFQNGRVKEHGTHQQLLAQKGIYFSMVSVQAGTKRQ
Procedure: The cell numbers of the human colon adenocarcinoma cell lines were adjusted to 2 × 10^6 cells/mL, re-suspended in serum-free RPMI 1640 medium, and distributed in 0.5 mL aliquots into Eppendorf centrifuge tubes. The tested compounds were added at concentrations of 2 or 20 μM, and the samples were incubated for 10 min at room temperature. Tariquidar was applied as positive control at 0.2 μM. DMSO at 2% v/v was used as solvent control. Next, 10 µL (5.2 µM final concentration) of the fluorochrome and ABCB1 substrate rhodamine 123 (Sigma) were added to the samples and the cells were incubated for a further 20 min at 37 °C, washed twice, and re-suspended in 1 mL PBS for analysis. The fluorescence of the cell population was measured with a PartecCyFlow® flow cytometer (Partec, Münster, Germany). The fluorescence activity ratio was calculated as the quotient between the FL-1 of the treated/untreated resistant Colo 320 cell line over the treated/untreated sensitive Colo 205 cell line according to the following equation [31]:(1) FAR = Colo320treated/Colo320control/Colo205treated/Colo205control

MRC-5 = assay: Assay for cytotoxic effect (MTT); format: cell-based, human; settings: for IC50: normal MRC-5 embryonal fibroblast cells, MTT, 24 h; for cytotoxic effect (in words): MRC-5, applied concentration up to 100 μM
Procedure: (§1) The human colon adenocarcinoma cell lines, the Colo 205 (ATCC-CCL-222) doxorubicin-sensitive parent and Colo 320/MDR-LRP (ATCC-CCL-220.1) resistant to anticancer agents expressing ABCB1, were purchased from LGC Promochem (Teddington, UK). The cells were cultured in RPMI-1640 medium supplemented with 10% heat-inactivated fetal bovine serum (FBS), 2 mM L-glutamine, 1 mM Na-pyruvate, 100 mM Hepes, nystatin, and a penicillin–streptomycin mixture in concentrations of 100 U/L and 10 mg/L, respectively. The MRC-5 (ATCC CCL-171) human embryonic lung fibroblast cell line (LGC Promochem) was cultured in EMEM medium, supplemented with 1% nonessential amino acid (NEAA) mixture, 10% heat-inactivated FBS, 2 mM L-glutamine, 1 mM Na-pyruvate, nystatin, and a penicillin–streptomycin mixture in concentrations of 100 U/L and 10 mg/L, respectively. The cell lines were incubated in a humidified atmosphere (5% CO2, 95% air) at 37 °C.
(§2) The effects of increasing concentrations of the compounds on cell growth were tested in 96-well flat-bottomed microtiter plates. The two-fold serial dilutions of the tested compounds were made starting with 100 μM. Then, 10^4 of human colonic adenocarcinoma cells in 100 μL of the medium (RPMI-1640) were added to each well, except for the medium control wells. The adherent human embryonic lung fibroblast cell line (10^4/well) was seeded in EMEM medium in 96-well flat-bottomed microtiter plates for 4 h before the assay. The serial dilutions of the compounds were made in a separate plate starting with 100 μM, and then transferred to the plates containing the adherent corresponding cell line. Culture plates were incubated at 37 °C for 24 h; at the end of the incubation period, 20 μL of MTT (thiazolyl blue tetrazolium bromide) solution (from a 5 mg/mL stock solution) were added to each well. After incubation at 37 °C for 4 h, 100 μL of sodium dodecyl sulfate (SDS) solution (10% SDS in 0.01 M HCl) were added to each well and the plates were further incubated at 37 °C overnight. Cell growth was determined by measuring the optical density (OD) at 540 nm (ref. 630 nm) with a Multiscan EX ELISA reader (Thermo Labsystems, Cheshire, WA, USA). Inhibition of cell growth was expressed as IC50 values, defined as the inhibitory dose that reduces the growth of the cells exposed to the tested compounds by 50%. IC50 values and the SD of triplicate experiments were calculated using GraphPad Prism software version 5.00 for Windows with nonlinear regression curve fit (GraphPad Software, San Diego, CA, USA; www.graphpad.com). The statistical analysis of data was performed using GraphPad Prism software version 5.00, applying the two-tailed t-test.

Colo 320 [2] = assay: Assay for cytotoxic effect (MTT); format: cell-based, human; settings: for cytotoxic effect (in words): Colo 320, applied concentration up to 100 μM; for IC50: resistant Colo 320 cells, MTT, 24 h
Procedure: as §1, §2

Colo 205 = assay: Assay for cytotoxic effect (MTT); format: cell-based, human; settings: for cytotoxic effect (in words): Colo 205, applied concentration up to 100 μM; for IC50: sensitive Colo 205 cells, MTT, 24 h
Procedure: as §1, §2

[3] = tested on: Escherichia coli ATCC 25922; assay: Minimum inhibitory concentration by microdilution method; format: cell-based; settings: ATCC25922, broth dilution, 18 h
[4] = tested on: Staphylococcus aureus ATCC 25,923; assay: as above; format: cell-based; settings: ATCC25, broth dilution, 18 h
[5] = tested on: Salmonella enterica serovar Typhimurium 14028s; assay: as above; format: cell-based; settings: broth dilution, 18 h
Colo 320 [6] = assay: Checkerboard combination assay with doxorubicin; format: cell-based, human; settings: for Fraction affected: Colo 320; for Dm (median-effect dose) in the combination: FuTo III:Doxo ratio 11:1, dose of the named component; for Dm (median-effect dose) in the combination / Dm (median-effect dose), drug alone: Colo 320, 72 h; for Dm (median-effect dose), drug alone: single drug, CompuSyn
Procedure: A checkerboard microplate method was applied to study the effect of drug interactions between the compound 8 and the chemotherapeutic drug doxorubicin. The assay was carried out on Colo 320 colon adenocarcinoma cell line. The final concentration of the compounds and doxorubicin used in the combination experiment was chosen in accordance with their cytotoxicity towards this cell line. The dilutions of doxorubicin were made in a horizontal direction for the 100 μL volume, and the dilutions of the compounds were made vertically in the microtiter plate for the 50 μL volume. Then, 6 × 10^3 of Colo 320 cells in 50 μL of the medium were added to each well, except for the medium control wells. The plates were incubated for 72 h at 37 °C in 5% CO2 atmosphere. The cell growth rate was determined after MTT staining. At the end of the incubation period, 20 μL of MTT solution (from a stock solution of 5 mg/mL) were added to each well. After incubation at 37 °C for 4 h, 100 μL of SDS solution (10% in 0.01 M HCI) were added to each well and the plates were further incubated at 37 °C overnight. OD was measured at 540 nm (ref. 630 nm) with a Multiscan EX ELISA reader. Combination index (CI) values at 50% of the growth inhibition dose (ED50) were determined using CompuSyn software (ComboSyn, Inc., Paramus, NJ, USA) to plot four to five data points at each ratio. CI values were calculated by means of the median-effect equation, according to the Chou–Talalay method, where CI < 1, CI = 1, and CI > 1 represent synergism, additive effect (or no interaction), and antagonism, respectively.

[7] = Fa 0.6829, combination FuTo III + Doxo
[8] = Fa 0.741889, combination FuTo III + Doxo
[9] = Fa 0.80679, combination FuTo III + Doxo
[10] = Fa 0.912987, combination FuTo III + Doxo

## O=C1O[C@H]([C@@H](O)CO)C(O)=C1O [Ascorbic acid, ascorbic acid]
DPPH assay
  DPPH EC50: 0.89 ± 0.02 µg/mL
ORAC assay
  ORAC Activity: 6.94 ± 0.58 mmol TE/g

## CC(C)=CC[C@H](O)[C@@H](C)[C@H]1CC[C@@]2(C)C3=C(CC[C@]12C)[C@@]1(C)CC[C@@](C)(C(=O)O)[C@@H]1CC3 [Compound 1, 22S-hydroxy-8,24-dien-3-norlanosta-28-oic acid]
[1]
  MIC: > 100 µM
P-glycoprotein (P-gp); 20 μM
  FSC: 2005
  SSC: 851
P-glycoprotein (P-gp); 20 μM, Colo 320, rhodamine-123
  FAR (fluorescence activity ratio): 1.139
MRC-5; Homo sapiens, MRC5
  IC50: > 100 µM
MRC-5
  cytotoxic effect (in words): did not show any significant effect
Colo 320 [2]
  cytotoxic effect (in words): did not show any significant effect
Colo 320 [2]; Homo sapiens
  IC50: > 100 µM
Colo 205
  cytotoxic effect (in words): did not show any significant effect
Colo 205; Homo sapiens
  IC50: > 100 µM
[3]
  MIC: > 100 µM
[4]
  MIC: > 100 µM
[5]
  MIC: > 100 µM

## CC(C)=CC[C@H](O)[C@@H](C)[C@H]1CC[C@@]2(C)C3=C(CC[C@]12C)[C@@]1(C)CC[C@H](O)[C@@](C)(C(=O)O)[C@@H]1CC3 [Compound 6, senexdiolic acid]
[1]
  MIC: > 100 µM
P-glycoprotein (P-gp); 20 μM
  FSC: 2074
  SSC: 861
P-glycoprotein (P-gp); 20 μM, Colo 320, rhodamine-123
  FAR (fluorescence activity ratio): 1.027
MRC-5; Homo sapiens, MRC5
  IC50: > 100 µM
Colo 320 [2]; Homo sapiens
  IC50: > 100 µM
Colo 205; Homo sapiens
  IC50: > 100 µM
[3]
  MIC: > 100 µM
[4]
  MIC: > 100 µM
[5]
  MIC: > 100 µM

## Cc1coc(C(=O)[C@@H](C)[C@H]2CC[C@@]3(C)C4=C(CC[C@]23C)[C@@]2(C)CC[C@@](C)(C(=O)O)[C@@H]2CC4)c1 [Compound 7, natalic acid]
[1]
  MIC: > 100 µM
P-glycoprotein (P-gp); 20 μM
  FSC: 2095
  SSC: 891
P-glycoprotein (P-gp); 20 μM, Colo 320, rhodamine-123
  FAR (fluorescence activity ratio): 1.053
MRC-5; Homo sapiens, MRC5
  IC50: > 100 µM
MRC-5
  cytotoxic effect (in words): did not show any significant effect
Colo 320 [2]
  cytotoxic effect (in words): did not show any significant effect
Colo 320 [2]; Homo sapiens
  IC50: > 100 µM
Colo 205
  cytotoxic effect (in words): did not show any significant effect
Colo 205; Homo sapiens
  IC50: > 100 µM
[3]
  MIC: > 100 µM
[4]
  MIC: > 100 µM
[5]
  MIC: > 100 µM

## COc1cccc2c1C(=O)c1c(O)c3c(c(O)c1C2=O)C[C@@](O)(C(=O)CO)C[C@@H]3O[C@H]1C[C@H](N)[C@H](O)[C@H](C)O1 [Doxorubicin, doxorubicin]
MRC-5; Homo sapiens, MRC5
  IC50: > 20 µM
Colo 320 [2]; Homo sapiens
  IC50: 7.44 ± 0.2 µM
Colo 205; Homo sapiens
  IC50: 2.46 ± 0.26 µM
Colo 320 [6]; Doxo alone 0.135 uM
  Fraction affected: 0.6475
Colo 320 [6]; Doxo alone 0.269 uM
  Fraction affected: 0.7257
Colo 320 [6]; Doxo alone 0.539 uM
  Fraction affected: 0.8038
Colo 320 [6]; Doxo alone 1.078 uM
  Fraction affected: 0.9263
Colo 320 [6]; Doxo alone 4.311 uM
  Fraction affected: 0.9749
Colo 320 [6]; [7]
  Dose Reduction Index (DRI) for experimental values: 1.374
Colo 320 [6]; [8]
  Dose Reduction Index (DRI) for experimental values: 0.937
Colo 320 [6]; [9]
  Dose Reduction Index (DRI) for experimental values: 0.702
Colo 320 [6]; [10]
  Dose Reduction Index (DRI) for experimental values: 0.475
Colo 320 [6]
  Dm (median-effect dose) in the combination: 0.04246 µM
  Dm (median-effect dose), drug alone: 0.08504 µM

## COc1cc2c(cc1OC)CN(CCc1ccc(NC(=O)c3cc(OC)c(OC)cc3NC(=O)c3cnc4ccccc4c3)cc1)CC2 [Tariquidar, reference compound]
P-glycoprotein (P-gp); 0.2 μM
  FSC: 1945
  SSC: 837
P-glycoprotein (P-gp); 0.2 μM, Colo 320, rhodamine-123
  FAR (fluorescence activity ratio): 5.533

## ergosta-7,22-diene-3-one [Compound 8]
P-glycoprotein (P-gp); 2 μM
  FSC: 2099
  SSC: 857
P-glycoprotein (P-gp); 2 μM, Colo 320, rhodamine-123
  FAR (fluorescence activity ratio): 0.872
  FL-1 (mean fluorescence of the cells): 10.100
MRC-5
  IC50: 7.92 ± 1.42 µM
Colo 320 [2]
  IC50: 8.43 ± 1.1 µM
Colo 205
  IC50: 11.7 ± 1.67 µM
Colo 320 [6]; [7]
  Dose Reduction Index (DRI) for experimental values: 18.211
Colo 320 [6]; [8]
  Dose Reduction Index (DRI) for experimental values: 10.119
Colo 320 [6]; [9]
  Dose Reduction Index (DRI) for experimental values: 5.811
Colo 320 [6]; [10]
  Dose Reduction Index (DRI) for experimental values: 2.045
Colo 320 [6]; FuTo III alone 6.25 uM
  Fraction affected: 0.0295
Colo 320 [6]; FuTo III alone 12.5 uM
  Fraction affected: 0.2522
Colo 320 [6]; FuTo III alone 25 uM
  Fraction affected: 0.5605
Colo 320 [6]
  Dm (median-effect dose) in the combination: 0.4671 µM
  Dm (median-effect dose), drug alone: 21.37 µM
Colo 320 [6]; compound 8 combined with doxorubicin, ratio 11.2:1, Colo 320, 72 h
  combination index (CI) at the 50% growth inhibition dose (ED50): 0.521 ± 0.15

— PMC8002351, “Triterpenes and Phenolic Compounds from the Fungus Fuscoporia torulosa: Isolation, Structure Determination and Biological Activity” (Molecules, 2021)
